Data on 24 compounds can be found in US10246456B2, “IRAK4 inhibiting agents” (BIOGEN MA INC., priority 2014, dated 2019).

Where only a bound is given, the exact number is not on record here.

Sequence of IRAK4 (Q9NWZ3 whole entry, species assumed): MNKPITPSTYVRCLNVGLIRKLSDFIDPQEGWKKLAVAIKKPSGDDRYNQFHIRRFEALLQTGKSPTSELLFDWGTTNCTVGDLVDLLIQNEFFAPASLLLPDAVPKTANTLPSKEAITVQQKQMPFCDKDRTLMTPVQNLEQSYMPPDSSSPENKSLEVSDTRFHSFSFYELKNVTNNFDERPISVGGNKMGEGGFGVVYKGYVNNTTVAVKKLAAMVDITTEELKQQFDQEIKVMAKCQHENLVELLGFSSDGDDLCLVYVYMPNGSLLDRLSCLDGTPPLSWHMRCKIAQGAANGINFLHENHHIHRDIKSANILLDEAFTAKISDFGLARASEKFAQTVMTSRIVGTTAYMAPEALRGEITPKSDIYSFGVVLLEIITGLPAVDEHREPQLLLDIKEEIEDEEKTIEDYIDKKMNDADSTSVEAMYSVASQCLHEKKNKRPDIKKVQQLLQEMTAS

This assay has as its target IRAK4 (Homo sapiens (Human), UniProt Q9NWZ3). Description: IRAK-4 AlphaScreen biochemical kinase assay. The settings on record: 1 nM IRAK4, 1 mM ATP, 3.5 h at RT. In outline: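 AlphaScreen read-out: streptavidin beads bind the biotinylated peptide and protein A beads bind the anti-phosphothreonine antibody, so energy transfer reports phosphorylation of the peptide. The kinase is human IRAK-4.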
In general terms: Bead proximity is the source of the signal in Alpha formats.
Consider `CC1(N)CCCc2ccc(-c3ccc4cnn(-c5cccc(CO)n5)c4c3)nc21` (stereo not drawn) [Example 420, (6-(6-(8-amino-8-methyl-5,6,7,8-tetrahydroquinolin-2-yl)-1H-indazol-1-yl)pyridin-2-yl)methanol], for which the IC50 – broadly, the concentration at which inhibition is half-maximal – was less than 100 nM.
As for `CCCC1(N)CCCc2ccc(-c3ccc4cnn(-c5cccc(CO)n5)c4c3)nc21` (stereo not drawn) [Example 421, (6-(6-(8-amino-8-propyl-5,6,7,8-tetrahydroquinolin-2-yl)-1H-indazol-1-yl)pyridin-2-yl)methanol], the figure is less than 100 nM.
The compound `CCC[C@H](N)c1cccc(-c2cc(C3CCN(C)CC3)c3cnn(-c4cccc(CO)n4)c3c2)n1` [Example 424, (S)-(6-(6-(6-(1-aminobutyl)pyridin-2-yl)-4-(1-methylpiperidin-4-yl)-1H-indazol-1-yl)pyridin-2-yl)methanol] registered an IC50 of less than 100 nM.
Turning to `CCC[C@H](N)c1cccc(-c2cc(OCCO)c3cnn(-c4cccc(CO)n4)c3c2)n1` [Example 426, (S)-2-((6-(6-(1-aminobutyl)pyridin-2-yl)-1-(6-(hydroxymethyl)pyridin-2-yl)-1H-indazol-4-yl)oxy)ethanol], the concentration for half-maximal inhibition (IC50) is less than 100 nM.
As to `COCCOc1cc(-c2cccc([C@@H](N)CCCO)n2)cc2c1cnn2-c1cncc(CO)n1` [Example 428, (S)-4-amino-4-(6-(1-(6-(hydroxymethyl)pyrazin-2-yl)-4-(2-methoxyethoxy)-1H-indazol-6-yl)pyridin-2-yl)butan-1-ol], the IC50 is less than 100 nM.
Compound `COCCOc1cc(-c2cccc([C@@H](N)C(F)CCO)n2)cc2c1cnn2-c1cccc(CO)n1` (stereo partly drawn) [Example 430, (4R)-4-amino-3-fluoro-4-(6-(1-(6-(hydroxymethyl)pyridin-2-yl)-4-(2-methoxyethoxy)-1H-indazol-6-yl)pyridin-2-yl)butan-1-ol] registered an IC50 of less than 100 nM.
Next, `COCCOc1cc(-c2cccc([C@H](N)C(F)CCO)n2)cc2c1cnn2-c1cccc(CO)n1` (stereo partly drawn) [Example 431, (4S)-4-amino-3-fluoro-4-(6-(1-(6-(hydroxymethyl)pyridin-2-yl)-4-(2-methoxyethoxy)-1H-indazol-6-yl)pyridin-2-yl)butan-1-ol]: 100 to 1000 nM; `COCCOc1cc(-c2cccc([C@@H](N)C(C)F)n2)cc2c1cnn2-c1cccc(CO)n1` (stereo partly drawn) [Example 433, (6-(6-(6-((1R)-1-amino-2-fluoropropyl)pyridin-2-yl)-4-(2-methoxyethoxy)-1H-indazol-1-yl)pyridin-2-yl)methanol]: less than 100 nM.
Consider `C=CC[C@H](N)c1cccc(-c2ccc3cnn(-c4cccc(CO)n4)c3c2)n1` [Example 435, (S)-(6-(6-(6-(1-aminobut-3-en-1-yl)pyridin-2-yl)-1H-indazol-1-yl)pyridin-2-yl)methanol], for which the IC50 was less than 100 nM.
`CCOc1cc(-c2cccc([C@@H](N)c3ccccc3)n2)cc2c1cnn2-c1cccc(CO)n1` [Example 440, (S)-(6-(6-(6-(amino(phenyl)methyl)pyridin-2-yl)-4-ethoxy-1H-indazol-1-yl)pyridin-2-yl)methanol] displayed an IC50 of less than 100 nM.
`CC#CC[C@H](N)c1cccc(-c2cc(OCC)c3cnn(-c4cccc(CO)n4)c3c2)n1` [Example 441, (S)-(6-(6-(6-(1-aminopent-3-yn-1-yl)pyridin-2-yl)-4-ethoxy-1H-indazol-1-yl)pyridin-2-yl)methanol]: the IC50 was less than 100 nM.
As for `CC(=O)C[C@H](N)c1cccc(-c2ccc3cnn(-c4cccc(CO)n4)c3c2)n1` [Example 449, (S)-4-amino-4-(6-(1-(6-(hydroxymethyl)pyridin-2-yl)-1H-indazol-6-yl)pyridin-2-yl)butan-2-one], the figure is less than 100 nM; as for `COCCOc1cc(-c2cccc([C@@H](N)CC(C)(F)F)n2)cc2c1cnn2-c1cccc(CO)n1` [Example 455, (S)-(6-(6-(6-(1-amino-3,3-difluorobutyl)pyridin-2-yl)-4-(2-methoxyethoxy)-1H-indazol-1-yl)pyridin-2-yl)methanol], less than 100 nM.
As for `C[C@H](N)c1cccc(-c2cc(OCCCO)c3cnn(-c4cccc(CO)n4)c3c2)n1` [Example 459, (S)-3-((6-(6-(1-aminoethyl)pyridin-2-yl)-1-(6-(hydroxymethyl)pyridin-2-yl)-1H-indazol-4-yl)oxy)propan-1-ol], the figure is less than 100 nM; as for `CCC[C@H](N)c1cccc(-c2cc(OCCCO)c3cnn(-c4cccc(CO)n4)c3c2)n1` [Example 460, (S)-3-((6-(6-(1-aminobutyl)pyridin-2-yl)-1-(6-(hydroxymethyl)pyridin-2-yl)-1H-indazol-4-yl)oxy)propan-1-ol], less than 100 nM.
For the compound `CC[C@H](N)c1cccc(-c2cc(OCCCO)c3cnn(-c4cccc(CO)n4)c3c2)n1` [Example 461, (S)-3-((6-(6-(1-aminopropyl)pyridin-2-yl)-1-(6-(hydroxymethyl)pyridin-2-yl)-1H-indazol-4-yl)oxy)propan-1-ol], the IC50 was less than 100 nM.
`CCC[C@H](N)c1cccc(-c2cc(C#CC(C)(C)O)c3cnn(-c4cccc(CO)n4)c3c2)n1` [Example 462, (S)-4-(6-(6-(1-aminobutyl)pyridin-2-yl)-1-(6-(hydroxymethyl)pyridin-2-yl)-1H-indazol-4-yl)-2-methylbut-3-yn-2-ol] showed an IC50 of 1000 to 10000 nM.
With `COCCOc1cc(-c2cccc(C3(N)COC3)n2)cc2c1cnn2-c1cccc(CO)n1` [Example 465, (6-(6-(6-(3-aminooxetan-3-yl)pyridin-2-yl)-4-(2-methoxyethoxy)-1H-indazol-1-yl)pyridin-2-yl)methanol], the half-inhibitory concentration (IC50) is 100 to 1000 nM.
Next, `COCCOc1cc(-c2cccc(C3(N)CCOC3)n2)cc2c1cnn2-c1cccc(CO)n1` (stereo not drawn) [Example 466, (6-(6-(6-(3-aminotetrahydrofuran-3-yl)pyridin-2-yl)-4-(2-methoxyethoxy)-1H-indazol-1-yl)pyridin-2-yl)methanol]: less than 100 nM.
As for `COCCOc1cc(-c2cccc(C3(N)CCC3)n2)cc2c1cnn2-c1cccc(CO)n1` [Example 467, (6-(6-(6-(1-aminocyclobutyl)pyridin-2-yl)-4-(2-methoxyethoxy)-1H-indazol-1-yl)pyridin-2-yl)methanol], the figure is less than 100 nM; as for `COCCOc1cc(-c2cccc(C3(N)CCC3)n2)cc2c1cnn2-c1cncc(CO)n1` [Example 468, (6-(6-(6-(1-aminocyclobutyl)pyridin-2-yl)-4-(2-methoxyethoxy)-1H-indazol-1-yl)pyrazin-2-yl)methanol], less than 100 nM.
Next, `COCCOc1cc(-c2cccc(C3(N)CCCC3)n2)cc2c1cnn2-c1cccc(CO)n1` [Example 469, (6-(6-(6-(1-aminocyclopentyl)pyridin-2-yl)-4-(2-methoxyethoxy)-1H-indazol-1-yl)pyridin-2-yl)methanol]: less than 100 nM; `CCC[C@H](N)c1cccc(-c2cc(OCCS(C)(=O)=O)c3cnn(-c4cccc(CO)n4)c3c2)n1` [Example 470, (S)-(6-(6-(6-(1-aminobutyl)pyridin-2-yl)-4-(2-(methylsulfonyl)ethoxy)-1H-indazol-1-yl)pyridin-2-yl)methanol]: 100 to 1000 nM; `CCC[C@H](N)c1cccc(-c2cc(OCC(C)(C)O)c3cnn(-c4cccc(CO)n4)c3c2)n1` [Example 471, (S)-1-((6-(6-(1-aminobutyl)pyridin-2-yl)-1-(6-(hydroxymethyl)pyridin-2-yl)-1H-indazol-4-yl)oxy)-2-methylpropan-2-ol]: less than 100 nM.
